Test results from US8557763B2, “Synthetic peptides that enhance tight junction permeability” (Alba Therapeutics Corporation, priority 2007, dated 2013).
Where no end group is shown, it is not given here. [ ]: non-standard residue; d: D form. AllylGly = C=CC[C@H](N)C(=O)O

How the values were obtained:
Type in all cases: cell-based
HeLa cells = test: Assay of cytoskeletal (actin) rearrangement, fluorescence microscopy; settings: 60 minutes, FIG. 11
Protocol: FIG. 10 is a fluorescence microscopy analysis showing the effects of FCIGRL (SEQ ID NO:1) and F-(Allyl)GIGRL (SEQ ID NO:2) on actin rearrangement in HeLa cells after 15 minutes and 60 minutes.
Gliadin treated with the peptidases pepsin and trypsin (termed PT-gliadin or PTG) induces a cytoskeletal arrangement in CaCo2 cells grown in monolayers. The rearrangement can be visualized using a Nikon-TE2000 epifluorescence microscope and a 40× objective and Alexa Fluor 555 conjugated phalloidin (Invitrogen, Carlsbad, Calif.), which binds specifically to F-actin. Exposure times were identical for control and agonist treated samples. The figures were generated using Adobe Photoshop CS2 v 9.0.2. The concentration of agonist was as indicated. Tight junction agonists can be identified by their ability to induce the cytoskeletal rearrangement as shown by the effects of peptide FCIGRL, a known tight junction agonist. FIGS. 3-6 and 8-11 show the cytoskeletal rearrangements induced by exemplary tight junction agonists of the invention, including with respect to the distribution of F-actin and the tight junction protein ZO-1.

CaCo2 monolayers [1] = test: Lucifer Yellow (LY) permeability assay through CaCo2 monolayers; set-up: key to Enhanced LY permeability: + indicates an enhancement of the permeability of the tight junctions were observed; − indicates no enhancement of permeability was observed; settings: CaCo2 monolayers, Lucifer Yellow flux
CaCo2 monolayers [2] = test: Trans Epithelial Electric Resistance (TEER) across CaCo2 monolayers; set-up: key to Reduced TEER: + indicates an enhancement of the permeability of the tight junctions were observed; − indicates no enhancement of permeability was observed; settings: CaCo2 monolayers

Substance | actin rearrangement in HeLa cells (HeLa cells) | Enhanced LY permeability (CaCo2 monolayers [1]) | Reduced TEER (CaCo2 monolayers [2])
Phe−AllylGly−Ile−Gly−Arg−Leu−OH [SEQ ID NO: 2] | actin cytoskeletal rearrangement to the borderline of cells |  | 
17 (A[AllylGly]IGRL-NH2; N-terminus assumed; SMILES C=CC[C@H](NC(=O)[C@H](C)N)C(=O)N[C@H](C(=O)NCC(=O)N[C@@H](CCCNC(=N)N)C(=O)N[C@@H](CC(C)C)C(N)=O)[C@@H](C)CC) [compound 17] |  | − | −
80 (F[AllylGly]IGRE-NH2; N-terminus assumed; SMILES C=CC[C@H](NC(=O)[C@@H](N)Cc1ccccc1)C(=O)N[C@H](C(=O)NCC(=O)N[C@@H](CCCNC(=N)N)C(=O)N[C@@H](CCC(=O)O)C(N)=O)[C@@H](C)CC) [compound 80] |  | + | +
22 (F[AllylGly]PGRL-NH2; N-terminus assumed; SMILES C=CC[C@H](NC(=O)[C@@H](N)Cc1ccccc1)C(=O)N1CCC[C@H]1C(=O)NCC(=O)N[C@@H](CCCNC(=N)N)C(=O)N[C@@H](CC(C)C)C(N)=O) [compound 22] |  | − | −
86 (F[AllylGly]IGRK-NH2; N-terminus assumed; SMILES C=CC[C@H](NC(=O)[C@@H](N)Cc1ccccc1)C(=O)N[C@H](C(=O)NCC(=O)N[C@@H](CCCNC(=N)N)C(=O)N[C@@H](CCCCN)C(N)=O)[C@@H](C)CC) [compound 86] |  | + | −
71 (F[AllylGly]IGPL-NH2; N-terminus assumed; SMILES C=CC[C@H](NC(=O)[C@@H](N)Cc1ccccc1)C(=O)N[C@H](C(=O)NCC(=O)N1CCC[C@H]1C(=O)N[C@@H](CC(C)C)C(N)=O)[C@@H](C)CC) [compound 71] |  | + | −
12 (Y[AllylGly]IGRL-NH2; N-terminus assumed; SMILES C=CC[C@H](NC(=O)[C@@H](N)Cc1ccc(O)cc1)C(=O)N[C@H](C(=O)NCC(=O)N[C@@H](CCCNC(=N)N)C(=O)N[C@@H](CC(C)C)C(N)=O)[C@@H](C)CC) [compound 12] |  | − | −
25 (F[AllylGly]LGRL-NH2; N-terminus assumed; SMILES C=CC[C@H](NC(=O)[C@@H](N)Cc1ccccc1)C(=O)N[C@@H](CC(C)C)C(=O)NCC(=O)N[C@@H](CCCNC(=N)N)C(=O)N[C@@H](CC(C)C)C(N)=O) [compound 25] |  | + | +
